In US20230025836A1, “EYE DROP COMPOSITION FOR PREVENTING OR TREATING EYE DISEASE” (Samjin Pharmaceutical Co., Ltd., priority 2019, published 2023):
In brackets after ≈: the same amount, converted by molar mass.

Experiment: Solubility of the active material in water
Assay type: physicochemical
Excerpt: In one embodiment, the eye drop may comprise the above-described solubilizing agent, so that an active ingredient thereof may be well dissolved and may not be precipitated even after long-term storage, thus resulting in better physical stability and chemical stability. In one embodiment, a concentration of the solubilizing agent in the eye drop may be 0.1 w/v % to 25.0 w/v %. In one embodiment, the type of the solubilizing agent may not be particularly limited, but may include, for example, at least one selected from the group consisting of surfactants, solvents, and mixtures thereof as follows. […] Thus, in one embodiment, the eye drop may comprise the solubilizing agent to dissolve 3-phenyl-4-propyl-1-(pyridin-2-yl)-1H-pyrazol-5-ol by 0.1% (1,000 μg/mL) to 2.0% (20,000 μg/mL).

Work on `CCCc1c(-c2ccccc2)nn(-c2ccccn2)c1O` [3-phenyl-4-propyl-1-(pyridin-2-yl)-1H-pyrazol-5-ol] yielded a solubility of ~3.4 µg/mL (≈ 12.2 µM).
